Type in all cases: in vivo
Assay [1] relates to Thrips tabaci. The experiment in a line: Example 11: dwarf beans against Thrips tabaci. The method, then:
Plots approx. 26 m^2 in size which are planted with dwarf beans are treated 16 days after emergence against Thrips tabaci, in four replications. The application is carried out with a knapsack sprayer which is operated with pressurized air. Here, the active substances Example (I-2) (240 SC) (I-4) (240 SC) and Example (I-9) (240 SC), in a tank mix with 0.1% a.s. rapeseed oil methyl ester (500 EW), are tested against the commercial standard Profenofos (720 EC) at the specified application rates. The water application rate is 1000 l/ha. Two applications are carried out at an interval of 10 days.
The test is evaluated 5 and 11 days after the first treatment by scoring the destruction rate of the nymphs on the leaves.

The subject of a further assay is Empoasca onukui. The experiment in a line: Example 15: tea plants against Empoasca onukui. As to conditions: larvae on shoots. As for the experimental part: Plots approx. 4 m^2 in size which are planted with tea plants cv. “Yabukita” are treated, in three replications, against Empoasca onukui. The application is carried out with a knapsack sprayer which is operated with pressurized air. Here, the active substance Example (I-4) (150 OD) is tested against the commercial standard Admire (10 WP) at the specified application rates. The water application rate is 10 000 l/ha.
The test is evaluated 15 and 29 days after the treatment by scoring the destruction rate of the larvae in percent on the shoots.

Another assay concerns sawflies Hoplocampa sp. The experiment in a line: Example 31: apple trees against sawflies. The settings on record: 57 d after treatment, larvae on fruits, Thiacloprid (SC 480) 48 + deltamethrin 3.75 tank mix, (I-4) (150 OD) 48 g a.s./ha/m crown level. The method, then: Apple trees cv. “Holsteiner Cox” in plots approx. 20 m^2 in size are treated, in 4 replications, against sawflies Hoplocampa sp. Here, the active substance Example (I-4) (150 OD) at the specified application rate is tested against a tank mix of the commercial standards Thiacloprid (SC 480) and Deltamethrin-liquid in the specified application rates. The application is carried out with a knapsack sprayer. Here, the treatment is effected with a water application rate of 500 l/ha/m crown level.
The test is evaluated 57 days after the treatment by scoring the destruction of the larvae on the fruits with the aid of the Abbott method.

Another assay has as its system Dacus ciliatus. The experiment in a line: Example 22A: bottle gourds against Dacus ciliatus. The method, then:
Plots approx. 10 m^2 in size which are planted with bottle gourds cv. “Waltham” are treated, in three replications, against Dacus ciliatus. The application is carried out with a motor-operated knapsack sprayer. Here, the active substance Example (I-4) (150 OD) and the commercial standard Fenthion (500 EC) are tested at the specified application rates. Three applications are carried out at in each case an interval of 7 days. The water application rate is approx. 500 l/ha.
The test is evaluated 8, 14 and 21 days after treatment 1 by scoring the infestation of the fruits.

Assay [2] has as its system Thrips tabaci. The experiment in a line: Example 6: onions against Thrips tabaci. The settings on record: population on leaves. As for the experimental part: Plots 15 m^2 in size which are planted with onions are treated, in two replications, against Thrips tabaci. The application is effected with a knapsack sprayer which is operated with pressurized air. Here, the active substances Example (I-4), in a tank mix together with 0.2% a.s. rapeseed oil methyl ester (500 EW) and the commercial standard dimethoate and (380 EC), are tested at the specified application rates in a tank mix with 0.9% a.s. E-actipron (900 EC). The water application rate is 300 l/ha.
The test was evaluated 43 and 62 days after the treatment by scoring the destruction rate of the population on the leaves.

A further assay relates to Pegomya spp. The experiment in a line: Example 17: winter wheat against Pegomya spp. As to conditions: 3 days after the last of two treatments (interval 7 days), larvae, Thiacloprid (240 OD) 72, (I-4) (240 SC + 0.2% rapeseed oil methyl ester) 96 g a.s./ha. As for the experimental part:
Plots approx. 25 m^2 in size which are planted with winter wheat cv. “Capfern” are treated, in four replications, against Pegomya spp. The application is carried out with a knapsack sprayer which is operated with pressurized air. Here, the active substance Example (I-4) (240 SC), in a tank mix with 0.2% a.s. rapeseed oil methyl ester (500 EW) and the commercial standard Thiacloprid (240 OD), is tested at the specified application rates. Two applications are carried out at an interval of 7 days. The water application rate is 350 l/ha.
The test is evaluated 3 days after the last treatment by scoring the destruction rate of the larvae on the plants.

Another assay deals with Carpocapsa pomonella. The experiment in a line: Example 29: apple trees against Carpocapsa pomonella, fruit damage. As to conditions: application rate printed as g a.s./ha: Chlorpyrifos-methyl (25 WP) 0.1, (I-4) (240 SC + 0.1% Steffes Mero) 0.012. As for the experimental part:
Approx. 15-year-old apple trees cv. “Golden Delicious” are treated, in four replications, against Carpocapsa pomonella. The application is carried out with an atomizer. Here, the active substance Example (I-4) (240 SC) in a tank mix together with 0.1% a.s. of the adjuvant Steffes Mero (rapeseed oil methyl ester) (733 1R) and the commercial standard Chlorpyrifos-methyl (25 WP) are tested at the specified application rates. The water application rate is 1052 l/ha. Two applications are carried out at an interval of 13 days.
The test is evaluated 32 days after treatment 2 by scoring the fruit damage with the aid of the Abbott formula.

For another assay, the system named is Rhagoletis cerasi. The experiment in a line: Example 21: cherry trees against Rhagoletis cerasi. As to conditions: 23 d after treatment 2, larvae on fruits, Dimethoate (400 EC) 200, (I-4) (150 OD) 75 g a.s./ha/m crown level. The method, then:
Cherry trees cv. “Van” which are approximately 26 years old are treated, in three replications, against Rhagoletis cerasi. The application is carried out with an atomizer. Here, the active substance Example (I-4) (150 OD) and the commercial standard dimethoate (400 EC) are applied at the specified application rates. Two applications are carried out at an interval of 6 days with a water application rate of 500 l/ha/m crown level.
The test is evaluated 23 days after treatment 2 by scoring the destruction rates of the animals (larvae) on the fruits with the aid of the Abbott formula.

Consider `CCOC(=O)OC1=C(c2cc(C)ccc2C)C(=O)N[C@]12CC[C@@H](OC)CC2` [Example (I-4)], for which, in the assay with Thrips tabaci [1] (5 d after first treatment, nymphs on leaves, Profenofos (720 EC) 1300, (I-9) 54, (I-2) 54, (I-4) 60 g a.s./ha, 240 SC + 0.1% rapeseed oil methyl ester), the “Efficacy (% Abbott) 5 d” value worked out at 60 % Abbott. For the same molecule, the “Efficacy (% Abbott) 11 d” value in the assay with Thrips tabaci [1] (11 d after first treatment (second application at 10 days), Profenofos 1300, (I-9) 54, (I-2) 54, (I-4) 60 g a.s./ha) came to 90 % Abbott. In addition, the “Efficacy (% Abbott) 15 d” value with Empoasca onukui (15 d after treatment, Admire (10 WP) 0.005 % a.s., (I-4) (150 OD) 0.01 % a.s.) is 73 % Abbott. For the same molecule, the “Efficacy (% Abbott) 29 d” value with Empoasca onukui (29 d after treatment, Admire 0.005 % a.s., (I-4) 0.01 % a.s.) is on record as 78.8 % Abbott. In addition, the “Efficacy (%) Abbott 57 d” value in the assay on sawflies Hoplocampa sp. worked out at 98%. For the same molecule, the “Efficacy (% Abbott) 8 d” value with Dacus ciliatus (8 d after treatment 1, infestation of fruits, Fenthion (500 EC) 300, (I-4) (150 OD) 200 g a.s./ha, three applications, 7-day intervals) came to 59.5 % Abbott. For the same molecule, the “Efficacy (% Abbott) 14 d” value in the assay with Dacus ciliatus (14 d after treatment 1, Fenthion 300, (I-4) 200 g a.s./ha) is listed as 48.9 % Abbott. In addition, the “Efficacy (% Abbott) 21 d” value in the assay with Dacus ciliatus (21 d after treatment 1, Fenthion 300, (I-4) 200 g a.s./ha) is reported as 44.5 % Abbott. The “Efficacy (% Abbott) 43 d” value with Thrips tabaci [2] (43 d after treatment, Dimethoate (380 EC + 0.9% E-actipron) 380, (I-4) (+ 0.2% rapeseed oil methyl ester) 96 g a.s./ha) worked out at 83.0 % Abbott. Also, the “Efficacy (% Abbott) 62 d” value with Thrips tabaci [2] (62 d after treatment, Dimethoate 380, (I-4) 96 g a.s./ha) amounted to 84.5 % Abbott. Besides, in the assay on Pegomya spp., the “Efficacy (% Abbott) 10 d” value is given as 100 % Abbott. In the assay on Carpocapsa pomonella, the “Efficacy (% Abbott) 32 d after treatment 2” value worked out at 73.7 % Abbott. For the same molecule, the “Efficacy (% Abbott) 23 d” value in the assay with Rhagoletis cerasi is 100 % Abbott.

The values are drawn from patent US20090298903A1, “USE OF TETRAMIC ACID DERIVATIVES FOR INSECT CONTROL” (priority 2006, published 2009).
